Patent US20170298073A1, “SALTS, CO-CRYSTALS, AMORPHOUS FORMS, AND CRYSTALLINE FORMS OF A CO-ACTIVATOR-ASSOCIATED ARGININE METHYLTRANSFERASE 1 (CARM1) INHIBITOR” (Epizyme, Inc, priority 2014, published 2017)
Values after ≈ are worked out from the molar mass of the structure shown.

Assay: Thermodynamic solubility at room temperature
Type: physicochemical
Conditions: 25 °C, thermodynamic from solid
Experimental: In an exemplary experiment, the thermodynamic solubilities of the solid forms described herein were determined at room temperature (RT, 25±3° C.).

CNC[C@@H](O)COc1ccc(Cl)c(-c2nc(-c3c(C)noc3C)c(C)c(N3CC4(CCN(C(=O)OC)CC4)C3)n2)c1 [Form A]
solubility (organic solvent or mixture, solvent 1,4-Dioxane): > 40 mg/mL | solubility (organic solvent or mixture, solvent 2-Methyl-tetrahydrofuran): > 50 mg/mL | solubility (organic solvent or mixture, solvent Acetic acid): > 44 mg/mL | solubility (organic solvent or mixture, solvent Acetone): > 48 mg/mL | solubility (organic solvent or mixture, solvent Acetonitrile): > 42 mg/mL | solubility (organic solvent or mixture, solvent CHCl3): > 38 mg/mL | solubility (organic solvent or mixture, solvent Dichloromethane): > 36 mg/mL | solubility (organic solvent or mixture, solvent Dimethyl sulfoxide): > 38 mg/mL | solubility (organic solvent or mixture, solvent Dimethylacetamide): > 42 mg/mL | solubility (organic solvent or mixture, solvent EtOAc): > 50 mg/mL | solubility (organic solvent or mixture, solvent EtOH): > 40 mg/mL | solubility (organic solvent or mixture, solvent Isopropanol): > 36 mg/mL | solubility (organic solvent or mixture, solvent Isopropyl acetate): > 36 mg/mL | solubility (organic solvent or mixture, solvent MeOH): > 38 mg/mL | solubility (organic solvent or mixture, solvent Methyl isobutyl ketone): > 34 mg/mL | solubility (organic solvent or mixture, solvent Methyl-tert-butyl ether): < 1.1 mg/mL | solubility (organic solvent or mixture, solvent N-methyl-2-pyrrolidone): > 44 mg/mL | solubility (organic solvent or mixture, solvent THF): > 36 mg/mL | solubility (organic solvent or mixture, solvent Toluene): > 38 mg/mL | solubility (organic solvent or mixture, solvent n-Heptane): < 1.1 mg/mL | solubility (organic solvent or mixture, solvent n-Heptane/THF (1:1 by volume)): 14 to 21 mg/mL (≈ 23.9 to 35.9 mM) | solubility (organic solvent or mixture, solvent n-Heptane/THF (1:2 by volume)): > 42 mg/mL | solubility (organic solvent or mixture, solvent n-Heptane/THF (1:3 by volume)): > 40 mg/mL | solubility (organic solvent or mixture, solvent n-Heptane/THF (2:1 by volume)): 2.6 to 3 mg/mL (≈ 4.44 to 5.13 mM) | solubility (organic solvent or mixture, solvent n-Heptane/THF (4:1 by volume)): < 1.6 mg/mL | solubility (water, solvent H2O): < 1.1 mg/mL
